≈ marks a conversion by molar mass, not a printed value. A value given as a limit tells only on which side of the number the result lay.

Holding throughout (format): functional
Experiment [1] deals with Helicobacter pylori. Nature of the experiment: Antibacterial activity against multidrug resistant Helicobacter pylori G27 assessed as bacterial growth inhibition incubated for 3 days by broth microdilution method. Conditions: G27, 72 h, time 3 day.
Experiment [2] relates to Helicobacter pylori. In words: Antibacterial activity against multidrug resistant Helicobacter pylori HP159 assessed as bacterial growth inhibition incubated for 3 days by broth microdilution method. Conditions: HP159, 72 h, time 3 day.
Experiment [3] deals with Helicobacter pylori. Nature of the experiment: Antibacterial activity against multidrug resistant Helicobacter pylori JRES00015 assessed as bacterial growth inhibition incubated for 3 days by broth microdilution method. To be noted: JRES00015, 72 h, time 3 day.
Experiment [4] deals with Helicobacter pylori. Nature of the experiment: Antibiofilm activity against Helicobacter pylori G27 assessed as reduction in viable bacteria within biofilms at 0.25 ug/ml incubated for 20 hrs by alamar blue assay. To be noted: dose 0.25 µg/ml.
For experiment [5], the system named is Helicobacter pylori. Nature of the experiment: Antibiofilm activity against Helicobacter pylori G27 assessed as reduction in preformed bacterial biofilm at 4 times MIC by crystal violet staining based assay. Set-up: scale not given: the % may be the effect or the level left.
The test system of experiment [6] is Helicobacter pylori. In words: Potency index, ratio of metronidazole MIC to test compound MIC for antibacterial activity against multidrug resistant Helicobacter pylori JRES00015.
Experiment [7] concerns Helicobacter pylori. Nature of the experiment: Antibiofilm activity against Helicobacter pylori G27 assessed as reduction in viable cells count at 4 times MIC.

Consider `Cc1ccc2c(c1)C(=O)c1cc(O)ccc1C2=O`, for which the MIC worked out at 8 µg/mL (≈ 33.6 µM) in the experiment on Helicobacter pylori [1], 8 µg/mL (≈ 33.6 µM) in the experiment on Helicobacter pylori [2] and 16 µg/mL (≈ 67.2 µM) in the experiment with Helicobacter pylori [3].

Turning to `O=C1c2ccccc2C(=O)c2cnccc21`, the MIC was determined as 0.125 µg/mL (≈ 0.598 µM) in the experiment with Helicobacter pylori [1], 0.0625 µg/mL (≈ 0.299 µM) with Helicobacter pylori [2] and 0.0625 µg/mL (≈ 0.299 µM) with Helicobacter pylori [3]. Further, the Activity with Helicobacter pylori [4] is 100%; with Helicobacter pylori [5], 51%; with Helicobacter pylori [7], 4.65 log10CFU/ml. The Ratio in the experiment with Helicobacter pylori [6] is listed as 512.

As for `O=C1c2ccccc2C(=O)c2cc(CO)ccc21`, the MIC with Helicobacter pylori [1], in the experiment with Helicobacter pylori [2] and in the experiment with Helicobacter pylori [3] was 8 µg/mL (≈ 33.6 µM) throughout.

With `O=C(O)c1ccc2c(c1)C(=O)c1ccccc1C2=O`, the figures for the MIC in the experiment with Helicobacter pylori [1], in the experiment with Helicobacter pylori [2] and with Helicobacter pylori [3] were 0.5 µg/mL (≈ 1.98 µM), 1 µg/mL (≈ 3.96 µM) and 0.25 µg/mL (≈ 0.991 µM), respectively.

Regarding `COc1cc2c(cc1O)C(=O)c1cc(C)ccc1C2=O`, the MIC in the experiment with Helicobacter pylori [1] is 16 µg/mL (≈ 59.6 µM); in the experiment on Helicobacter pylori [2] it was 8 µg/mL (≈ 29.8 µM); in the experiment with Helicobacter pylori [3], 16 µg/mL (≈ 59.6 µM).

For the compound `Cc1ccc2c(c1)C(=O)c1cc(O)c(O)cc1C2=O`, the MIC in the experiment on Helicobacter pylori [1], in the experiment on Helicobacter pylori [2] and in the experiment with Helicobacter pylori [3] was 32 µg/mL (≈ 126 µM) each time.

`CO[C@@H]1Cc2c(c(O[C@@H]3O[C@H](C)[C@@H](O)[C@H](O)[C@H]3O)c3ccccc3c2O[C@@H]2O[C@H](CO)[C@@H](O)[C@H](O)[C@H]2O)CO1`: the MIC in the experiment on Helicobacter pylori [1] was 64 µg/mL (≈ 115 µM); in the experiment with Helicobacter pylori [2], 64 µg/mL (≈ 115 µM); in the experiment on Helicobacter pylori [3], 32 µg/mL (≈ 57.7 µM).

As to `OC[C@H]1O[C@@H](Oc2c3c(c(O[C@@H]4O[C@H](CO)[C@@H](O)[C@H](O)[C@H]4O)c4ccccc24)CC(O)OC3)[C@H](O)[C@@H](O)[C@@H]1O` (stereo not given in full), the MIC with Helicobacter pylori [1], in the experiment on Helicobacter pylori [2] and with Helicobacter pylori [3] was greater than 64 µg/mL in each case.

Consider `O=C1C2=C(C(=O)c3ccccc31)C(O)OCC2` (stereo not given), for which the figures for the MIC with Helicobacter pylori [1], in the experiment on Helicobacter pylori [2] and with Helicobacter pylori [3] were 0.125 µg/mL (≈ 0.543 µM), 0.125 µg/mL (≈ 0.543 µM) and 0.0625 µg/mL (≈ 0.271 µM), respectively. For the same compound, the Ratio in the experiment on Helicobacter pylori [6] is recorded as 512.

For `C/C(=C/Cc1c(C(=O)O)c(O[C@@H]2O[C@H](CO)[C@@H](O)[C@H](O)[C@H]2O)c2ccccc2c1O[C@@H]1O[C@H](CO)[C@@H](O)[C@H](O)[C@H]1O)CO`, the MIC in the experiment on Helicobacter pylori [1], with Helicobacter pylori [2] and in the experiment with Helicobacter pylori [3] was greater than 64 µg/mL in each case.

`CO[C@H]1Cc2c(c(O[C@@H]3O[C@H](CO)[C@@H](O)[C@H](O)[C@H]3O)c3ccccc3c2O[C@@H]2O[C@H](CO)[C@@H](O)[C@H](O)[C@H]2O)CO1`: the MIC with Helicobacter pylori [1], in the experiment on Helicobacter pylori [2] and in the experiment on Helicobacter pylori [3] was greater than 64 µg/mL in each case.

Turning to `CO[C@H]1OCc2c(c(O[C@@H]3O[C@H](CO)[C@@H](O)[C@H](O)[C@H]3O)c3ccccc3c2O[C@@H]2O[C@H](C)[C@@H](O)[C@H](O)[C@H]2O)[C@@H]1O`, the MIC in the experiment with Helicobacter pylori [1] is 64 µg/mL (≈ 112 µM); in the experiment on Helicobacter pylori [2] it was 64 µg/mL (≈ 112 µM); with Helicobacter pylori [3], 32 µg/mL (≈ 56.1 µM).

For the compound `OC[C@H]1O[C@@H](Oc2c3c(c(O[C@@H]4O[C@H](CO)[C@@H](O)[C@H](O)[C@H]4O)c4ccccc24)COC=C3)[C@H](O)[C@@H](O)[C@@H]1O`, the minimum inhibitory concentration (MIC) in the experiment with Helicobacter pylori [1], in the experiment with Helicobacter pylori [2] and in the experiment on Helicobacter pylori [3] was 32 µg/mL (≈ 59.4 µM) in each case.

Regarding `COC(=O)c1ccc2c(c1)C(=O)c1cc(O)ccc1C2=O`, the MIC in the experiment on Helicobacter pylori [1] was 2 µg/mL (≈ 7.09 µM); with Helicobacter pylori [2], 4 µg/mL (≈ 14.2 µM); in the experiment with Helicobacter pylori [3] it was 2 µg/mL (≈ 7.09 µM).

For the compound `CO[C@@H]1Cc2c(c(O[C@@H]3O[C@H](CO)[C@@H](O)[C@H](O)[C@H]3O)c3ccccc3c2O[C@@H]2O[C@H](CO)[C@@H](O)[C@H](O)[C@H]2O)CO1`, the MIC in the experiment on Helicobacter pylori [1], in the experiment with Helicobacter pylori [2] and in the experiment on Helicobacter pylori [3] was greater than 64 µg/mL in each case.

As to `C[C@H]1O[C@@H](Oc2c3c(c(O[C@@H]4O[C@H](CO)[C@@H](O)[C@H](O)[C@H]4O)c4ccccc24)C=COC3)[C@H](O)[C@@H](O)[C@@H]1O`, the MIC in the experiment on Helicobacter pylori [1], in the experiment with Helicobacter pylori [2] and in the experiment with Helicobacter pylori [3] was 32 µg/mL (≈ 61.2 µM) each time.

Turning to `CO[C@H]1Cc2c(c(O[C@@H]3O[C@H](C)[C@@H](O)[C@H](O)[C@H]3O)c3ccccc3c2O[C@@H]2O[C@H](CO)[C@@H](O)[C@H](O)[C@H]2O)CO1`, the MIC in the experiment with Helicobacter pylori [1], in the experiment on Helicobacter pylori [2] and with Helicobacter pylori [3] was greater than 64 µg/mL each time.

Turning to `COc1ccc2c(c1)C(=O)c1cc(CO)ccc1C2=O`, the MIC in the experiment on Helicobacter pylori [1], in the experiment on Helicobacter pylori [2] and with Helicobacter pylori [3] was 8 µg/mL (≈ 29.8 µM) throughout.

Turning to `CC[C@H]1OC(=O)[C@H](C)[C@@H](O[C@H]2C[C@@](C)(OC)[C@@H](O)[C@H](C)O2)[C@H](C)[C@@H](O[C@@H]2O[C@H](C)C[C@H](N(C)C)[C@H]2O)[C@](C)(OC)C[C@@H](C)C(=O)[C@H](C)[C@@H](O)[C@]1(C)O` [CLARITHROMYCIN], the MIC in the experiment on Helicobacter pylori [1] amounted to 0.008 µg/mL (≈ 0.0107 µM); in the experiment on Helicobacter pylori [2], 2 µg/mL (≈ 2.67 µM); with Helicobacter pylori [3], 2 µg/mL (≈ 2.67 µM).

Consider `C[C@H]1COc2c(N3CCN(C)CC3)c(F)cc3c(=O)c(C(=O)O)cn1c23.C[C@H]1COc2c(N3CCN(C)CC3)c(F)cc3c(=O)c(C(=O)O)cn1c23.O` [LEVOFLOXACIN], for which the MIC came to 0.25 µg/mL in the experiment on Helicobacter pylori [1], 8 µg/mL in the experiment on Helicobacter pylori [2] and 16 µg/mL with Helicobacter pylori [3].

For `Cc1ncc([N+](=O)[O-])n1CCO` [METRONIDAZOLE], the MIC turned out to be 2 µg/mL (≈ 11.7 µM) in the experiment on Helicobacter pylori [1], 16 µg/mL (≈ 93.5 µM) in the experiment on Helicobacter pylori [2] and 32 µg/mL (≈ 187 µM) in the experiment with Helicobacter pylori [3]. Further, the Activity is reported as 33% in the experiment on Helicobacter pylori [5] and 0.76 log10CFU/ml in the experiment on Helicobacter pylori [7].

Source of the values: ChEMBL document CHEMBL5120817, “Quinone Derivatives as Promising Anti-Helicobacter pylori Agents from Aerial Parts of Mitracarpus hirtus” (2022).
